Experimental data taken from ChEMBL document CHEMBL1201862, “PubChem BioAssay data set” (2004).
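Exposure lasted 48 hours, with cells grown in 96-well plates and compounds tested at five concentrations. The concentration for 50% growth inhibition is given as GI50.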 The source made the active and inactive calls. Cut-off read from the data, not from the text of the source: active = GI50 up to about 1.1 µM and inactive = higher.

Experiments:
Experiment in all cases: NCI-60 cell line screen, 48 h
SN12C = test system: SN12C
K562 = test system: K562
UACC-62 = test system: UACC-62
BT-549 = test system: BT-549
Malme-3M = test system: Malme-3M
SK-OV-3 = test system: SK-OV-3
RXF 393 = test system: RXF 393
OVCAR-5 = test system: OVCAR-5
TK-10 = test system: TK-10
EKVX = test system: EKVX
NCI-H226 = test system: NCI-H226
MOLT-4 = test system: MOLT-4
NCI-H23 = test system: NCI-H23
HL-60 = test system: HL-60
SF-539 = test system: SF-539
KM12 = test system: KM12
IGROV-1 = test system: IGROV-1
LOX IMVI = test system: LOX IMVI
OVCAR-4 = test system: OVCAR-4
MDA-N = test system: MDA-N

| SMILES | GI50 (SN12C) | GI50 (K562) | GI50 (UACC-62) | GI50 (BT-549) | GI50 (Malme-3M) | GI50 (SK-OV-3) | GI50 (RXF 393) | GI50 (OVCAR-5) | GI50 (TK-10) | GI50 (EKVX) | GI50 (NCI-H226) | GI50 (MOLT-4) | GI50 (NCI-H23) | GI50 (HL-60) | GI50 (SF-539) | GI50 (KM12) | GI50 (IGROV-1) | GI50 (LOX IMVI) | GI50 (OVCAR-4) | GI50 (MDA-N) |
| --- | --- | --- | --- | --- | --- | --- | --- | --- | --- | --- | --- | --- | --- | --- | --- | --- | --- | --- | --- | --- |
| COC12OC3(C4OC41)C(C(=O)O[C@H]3CO[Si](C)(C)C(C)(C)C)C2S(=O)(=O)c1ccccc1 (some centres not stated) | > 4.65 µM (inactive) | 1.6 µM (inactive) | > 4.65 µM (inactive) | > 49.9 µM (inactive) | > 41.8 µM (inactive) | > 4.65 µM (inactive) | < 0.01 µM (active) | > 4.65 µM (inactive) | 4.06 µM (inactive) | > 4.65 µM (inactive) | > 100 µM (inactive) | 2.25 µM (inactive) | > 100 µM (inactive) | < 0.01 µM (active) | > 100 µM (inactive) | – | – | – | – | – |
| O=C(c1ccccc1)c1c(C(F)(F)F)[n+]([O-])c2ccccc2[n+]1[O-] | 0.951 µM (active) | 0.209 µM (active) | 1.68 µM (inactive) | 0.476 µM (active) | 2 µM (inactive) | – | 1.46 µM (inactive) | 1.31 µM (inactive) | 1.64 µM (inactive) | 2.17 µM (inactive) | 1.51 µM (inactive) | 0.129 µM (active) | 1.43 µM (inactive) | 0.205 µM (active) | 1.83 µM (inactive) | 0.451 µM (active) | 0.188 µM (active) | 0.291 µM (active) | 0.302 µM (active) | – |
| COC(=O)c1ccc2c(c1)CC1(C2)Cc2cc3c(cc2C1)CCC3 | – | > 100 µM (inactive) | – | – | 79.6 µM (inactive) | > 100 µM (inactive) | > 100 µM (inactive) | > 100 µM (inactive) | > 100 µM (inactive) | > 100 µM (inactive) | – | > 100 µM (inactive) | > 100 µM (inactive) | > 100 µM (inactive) | > 100 µM (inactive) | – | > 100 µM (inactive) | > 100 µM (inactive) | > 100 µM (inactive) | > 100 µM (inactive) |
| CCC1=CC(OCc2ccccc2)C(CCN(Cc2ccccc2)C(=O)OCc2ccccc2)C1 (configuration not stated) | – | 11 µM (inactive) | 10.9 µM (inactive) | – | 15.6 µM (inactive) | 20 µM (inactive) | 3.5 µM (inactive) | 13.5 µM (inactive) | 16.5 µM (inactive) | 16.1 µM (inactive) | 15.7 µM (inactive) | 10.2 µM (inactive) | 14.9 µM (inactive) | – | 20.6 µM (inactive) | 15.6 µM (inactive) | 15.6 µM (inactive) | 14.9 µM (inactive) | 13.7 µM (inactive) | 30.4 µM (inactive) |
| O=C(Nc1nnc(-c2ccc(Cl)cc2)o1)C(SC(=S)N1CCOCC1)c1ccccc1 (configuration not stated) | 8.22 µM (inactive) | 11.6 µM (inactive) | – | 16.8 µM (inactive) | 35 µM (inactive) | 28.1 µM (inactive) | 26.9 µM (inactive) | 34.8 µM (inactive) | 44.3 µM (inactive) | 14.6 µM (inactive) | 21.9 µM (inactive) | 4.38 µM (inactive) | 20.9 µM (inactive) | 5.69 µM (inactive) | 16.7 µM (inactive) | 13.7 µM (inactive) | 19.6 µM (inactive) | 7.94 µM (inactive) | 20.2 µM (inactive) | – |
| COc1ccc(Oc2cccc(C3C4C(=O)N(c5ccc(C)c(Cl)c5)C(=O)C4ON3C(C(N)=O)c3ccccc3)c2)cc1 (configuration not stated) | 12.4 µM (inactive) | 16.6 µM (inactive) | 10.9 µM (inactive) | – | 15.8 µM (inactive) | > 50 µM (inactive) | 7.6 µM (inactive) | 17.7 µM (inactive) | 19.4 µM (inactive) | 10.4 µM (inactive) | 15.6 µM (inactive) | 11.8 µM (inactive) | 8.55 µM (inactive) | 12.6 µM (inactive) | 10.4 µM (inactive) | 18 µM (inactive) | 18.8 µM (inactive) | 13.7 µM (inactive) | 18.9 µM (inactive) | 10.4 µM (inactive) |
